Columns and labels:
Test in all cases: relative viability (nuclei count vs DMSO), 5 days (fraction); higher = more cells survive
[1] = test system: HCC-78
Procedure, shortened: (§1)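 Relative viability equals treated-well nuclei counts divided by vehicle-well nuclei counts. Counts came from 4× images of lung cancer cell lines grown in 1536-well plates for 5 days after pin-tool dosing on the day after seeding. Dosing used one drug alone or a fixed anchor-drug dose plus five library-drug doses (not always all listed) in √10 steps, and values are medians of duplicate plates.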

[2] = test system: NCI-H661
Procedure, shortened: as §1

[3] = test system: NCI-H1915
Procedure, shortened: as §1

[4] = test system: HCC-366
Procedure, shortened: as §1

[5] = test system: NCI-H1993
Procedure, shortened: as §1

[6] = test system: LK-2
Procedure, shortened: as §1

[7] = test system: NCI-H2405
Procedure, shortened: as §1

[8] = test system: COR-L23
Procedure, shortened: as §1

[9] = test system: A-427
Procedure, shortened: as §1

[10] = test system: EMC-BAC-2
Procedure, shortened: as §1

[11] = test system: NCI-H1563
Procedure, shortened: as §1

[12] = test system: COR-L 105
Procedure, shortened: as §1

[13] = test system: BEN
Procedure, shortened: as §1

[14] = test system: HOP-62
Procedure, shortened: as §1

[15] = test system: NCI-H1734
Procedure, shortened: as §1

[16] = test system: SK-MES-1
Procedure, shortened: as §1

[17] = test system: PC-14
Procedure, shortened: as §1

[18] = test system: NCI-H460
Procedure, shortened: as §1

[19] = test system: NCI-H647
Procedure, shortened: as §1

[20] = test system: 201T
Procedure, shortened: as §1

[21] = test system: EKVX
Procedure, shortened: as §1

[22] = test system: HCC-15
Procedure, shortened: as §1

SMILES: CN1CCN(CCOc2cc(OC3CCOCC3)c3c(Nc4c(Cl)ccc5c4OCO5)ncnc3c2)CC1 [Saracatinib] + Cc1nc(NC(=O)N2CCC[C@H]2C(N)=O)sc1-c1ccnc(C(C)(C)C(F)(F)F)c1 [Alpelisib] (partner 2 µM)
- relative viability ([1]; first compound 0.02 µM): 0.29
- relative viability ([1]; first compound 0.2 µM): 0.328
- relative viability ([1]; first compound 0.6325 µM): 0.479
- relative viability ([1]; first compound 2 µM): 0.323
- relative viability ([2]; first compound 0.02 µM): 0.838
- relative viability ([2]; first compound 0.2 µM): 0.329
- relative viability ([2]; first compound 0.6325 µM): 0.357
- relative viability ([2]; first compound 2 µM): 0.377
- relative viability ([3]; first compound 0.02 µM): 1.04
- relative viability ([3]; first compound 0.2 µM): 0.552
- relative viability ([3]; first compound 0.6325 µM): 1.07
- relative viability ([3]; first compound 2 µM): 1.01
- relative viability ([4]; first compound 0.02 µM): 0.429
- relative viability ([4]; first compound 0.6325 µM): 0.272
- relative viability ([4]; first compound 2 µM): 0.152
- relative viability ([5]; first compound 0.02 µM): 0.68
- relative viability ([5]; first compound 0.2 µM): 0.531
- relative viability ([5]; first compound 2 µM): 0.656
- relative viability ([6]; first compound 0.02 µM): 0.956
- relative viability ([6]; first compound 0.2 µM): 0.851
- relative viability ([6]; first compound 0.6325 µM): 1.02
- relative viability ([6]; first compound 2 µM): 0.531
- relative viability ([7]; first compound 0.02 µM): 0.796
- relative viability ([7]; first compound 0.2 µM): 0.821
- relative viability ([7]; first compound 0.6325 µM): 0.413
- relative viability ([7]; first compound 2 µM): 0.284
- relative viability ([8]; first compound 0.02 µM): 0.755
- relative viability ([8]; first compound 0.2 µM): 0.621
- relative viability ([8]; first compound 0.6325 µM): 0.591
- relative viability ([8]; first compound 2 µM): 0.603
- relative viability ([9]; first compound 0.02 µM): 1.09
- relative viability ([9]; first compound 0.2 µM): 0.916
- relative viability ([9]; first compound 0.6325 µM): 1.07
- relative viability ([9]; first compound 2 µM): 1.01
- relative viability ([10]; first compound 0.02 µM): 0.778
- relative viability ([10]; first compound 0.2 µM): 0.657
- relative viability ([10]; first compound 0.6325 µM): 0.697
- relative viability ([10]; first compound 2 µM): 0.578
- relative viability ([11]; first compound 0.02 µM): 0.992
- relative viability ([11]; first compound 0.2 µM): 0.882
- relative viability ([11]; first compound 0.6325 µM): 0.725
- relative viability ([11]; first compound 2 µM): 0.693
- relative viability ([12]; first compound 0.02 µM): 0.91
- relative viability ([12]; first compound 0.2 µM): 0.96
- relative viability ([12]; first compound 0.6325 µM): 0.7
- relative viability ([12]; first compound 2 µM): 0.416
- relative viability ([13]; first compound 0.02 µM): 1.08
- relative viability ([13]; first compound 0.2 µM): 1.03
- relative viability ([13]; first compound 0.6325 µM): 1.07
- relative viability ([13]; first compound 2 µM): 0.85
- relative viability ([14]; first compound 0.02 µM): 0.989
- relative viability ([14]; first compound 0.2 µM): 0.782
- relative viability ([14]; first compound 0.6325 µM): 0.801
- relative viability ([14]; first compound 2 µM): 0.749
- relative viability ([15]; first compound 0.02 µM): 0.669
- relative viability ([15]; first compound 0.6325 µM): 0.646
- relative viability ([15]; first compound 2 µM): 0.507
- relative viability ([16]; first compound 0.02 µM): 0.713
- relative viability ([16]; first compound 0.2 µM): 0.77
- relative viability ([16]; first compound 0.6325 µM): 0.76
- relative viability ([16]; first compound 2 µM): 0.644
- relative viability ([17]; first compound 0.02 µM): 0.996
- relative viability ([17]; first compound 0.2 µM): 0.681
- relative viability ([17]; first compound 0.6325 µM): 0.46
- relative viability ([17]; first compound 2 µM): 0.172
- relative viability ([18]; first compound 0.02 µM): 0.574
- relative viability ([18]; first compound 0.2 µM): 0.347
- relative viability ([18]; first compound 0.6325 µM): 0.289
- relative viability ([18]; first compound 2 µM): 0.175
- relative viability ([19]; first compound 0.02 µM): 1.09
- relative viability ([19]; first compound 0.2 µM): 0.83
- relative viability ([19]; first compound 0.6325 µM): 0.635
- relative viability ([19]; first compound 2 µM): 0.36
- relative viability ([20]; first compound 0.02 µM): 1.09
- relative viability ([20]; first compound 0.2 µM): 0.865
- relative viability ([20]; first compound 0.6325 µM): 0.856
- relative viability ([20]; first compound 2 µM): 0.772
- relative viability ([21]; first compound 0.02 µM): 0.897
- relative viability ([21]; first compound 0.2 µM): 0.551
- relative viability ([21]; first compound 0.6325 µM): 0.671
- relative viability ([21]; first compound 2 µM): 0.325
- relative viability ([22]; first compound 0.02 µM): 0.889
- relative viability ([22]; first compound 0.2 µM): 0.641
- relative viability ([22]; first compound 0.6325 µM): 0.808
- relative viability ([22]; first compound 2 µM): 0.759

Source: the supplement of paper PMC10307832
